The values below come from US20090239841A1, “Diaryl Ureas as CB1 Antagonists” (priority 2004, published 2009).

Like-named read-outs stand apart in the source and are kept apart here.

This assay concerns the target T1, hCB1 (Homo sapiens, UniProt P21554).
T1 construct: made in house; host or cells: Sf9 insect cells (baculovirus), P2 membranes
The experiment in a line: Agonist-induced GTP binding (GTPγ35S) assay at CB1, Example 8. The assay is classed as biochemical. Conditions: read-out: IC50. A digest of the protocol: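 Antagonism read as inhibition of 1 nM CP55,940-stimulated GTPγ35S ([…]) binding, compounds at 10^−10 to 10^−5 M. Baculovirus-infected Sf9 membranes bearing hCB1 plus G-protein subunits, 60 min room-temperature incubation with 5 μM GDP. Filtration and scintillation counting; data as percent over basal.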

Where [1] appears, read: IC50 at CB1, determined as described in Example 8.
Setting [2] is: Table I, IC50 at CB1, GTP binding with 1 nM CP55,940.
Setting [3] is: Table II, IC50 at CB1, GTP binding with 1 nM CP55,940.

T1 sequence (P21554 whole entry): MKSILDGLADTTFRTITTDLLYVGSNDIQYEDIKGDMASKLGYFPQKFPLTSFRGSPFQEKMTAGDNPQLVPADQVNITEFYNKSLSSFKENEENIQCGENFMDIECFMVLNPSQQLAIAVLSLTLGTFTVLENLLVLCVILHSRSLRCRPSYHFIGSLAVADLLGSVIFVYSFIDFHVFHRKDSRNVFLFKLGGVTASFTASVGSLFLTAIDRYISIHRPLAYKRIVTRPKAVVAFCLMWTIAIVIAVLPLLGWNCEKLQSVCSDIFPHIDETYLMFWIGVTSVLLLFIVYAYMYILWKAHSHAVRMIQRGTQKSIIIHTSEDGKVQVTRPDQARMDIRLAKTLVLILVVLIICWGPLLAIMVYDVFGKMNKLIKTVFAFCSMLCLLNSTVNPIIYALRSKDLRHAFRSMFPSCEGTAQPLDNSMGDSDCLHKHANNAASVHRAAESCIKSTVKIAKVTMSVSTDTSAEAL

Usually IC50 stands for the midpoint of a concentration-inhibition curve. Consider `CCOC(=O)c1ccc(NC(=O)Nc2cccc(COC)c2)cc1` [Compound 666, ethyl 4-[({[3-(methoxymethyl)phenyl]amino}carbonyl)amino]benzoate], for which the IC50 under setting [1] was less than 2000 nM.
For the molecule `CC(C)c1ccc(NC(=O)Nc2ccccc2)cc1` [Compound 47, N-(4-isopropylphenyl)-N′-phenylurea], the IC50 under setting [2] was less than 2000 nM.
In the case of `CCOc1ccc(NC(=O)Nc2cccc(OC(C)C)c2)cc1` [Compound 550, 1-(4-ethoxyphenyl)-3-(3-isopropoxyphenyl)urea], the IC50 under setting [1] is less than 2000 nM.
Still for that read-out and setting: as for `COc1ccc(NC(=O)Nc2cccc(C#N)c2)cc1` [Compound 409, 1-(3-cyanophenyl)-3-(4-methoxyphenyl)urea], the figure is less than 2000 nM; as for `CC(=O)c1ccc(NC(=O)Nc2cccc(OC(C)C)c2)cc1` [Compound 420, 1-(4-acetylphenyl)-3-(3-isopropoxyphenyl)urea], less than 2000 nM; as for `CCc1ccc(NC(=O)Nc2cccc(Cl)c2)cc1` [Compound 330, 1-(3-chlorophenyl)-3-(4-ethylphenyl)urea], less than 2000 nM.
As to `Cc1ccc(NC(=O)Nc2ccc(CC#N)cc2)cc1` [Compound 460, 1-[4-(cyanomethyl)phenyl]-3-(4-methylphenyl)urea], the IC50 under setting [1] is less than 2000 nM.
The same measure, in the same setting: to `COc1cccc(NC(=O)Nc2ccc(OC(C)C)cc2)c1` [Compound 551, 1-(4-isopropoxyphenyl)-3-(3-methoxyphenyl)urea] belongs less than 2000 nM.
The same measure, in the same setting: to `CCOC(=O)c1ccc(NC(=O)Nc2cccc(OCC)c2)cc1` [Compound 662, ethyl 4-({[(3-ethoxyphenyl)amino]carbonyl}amino)benzoate] belongs less than 2000 nM.
On to `CC(C)Oc1cccc(NC(=O)Nc2ccc(OC(F)(F)F)cc2)c1` [Compound 536, 1-(3-isopropoxyphenyl)-3-[4-(trifluoromethoxy)phenyl]urea], for which the IC50 under setting [1] was less than 2000 nM.
With `CCC(=O)c1ccc(NC(=O)Nc2cccc(C#N)c2)cc1` [Compound 509, 1-(3-cyanophenyl)-3-(4-propionylphenyl)urea], the IC50 under setting [1] was less than 2000 nM.
With `CC(C)OC(=O)c1ccc(NC(=O)Nc2ccc(OC(F)F)cc2)cc1` [Compound 584, isopropyl 4-[({[4-(difluoromethoxy)phenyl]amino}carbonyl)amino]benzoate], the IC50 under setting [1] is less than 2000 nM.
On the same count and under the same terms, as for `CCOc1ccc(NC(=O)Nc2cccc(C(C)=O)c2)cc1` [Compound 412, 1-(3-acetylphenyl)-3-(4-ethoxyphenyl)urea], the figure is less than 2000 nM.
`CCc1cncc(-c2cccc(NC(=O)Nc3ccc(OC(F)F)cc3)c2)n1` [Compound 124, N-[4-(difluoromethoxy)phenyl]-N′-[3-(6-ethylpyrazin-2-yl)phenyl]urea]: the IC50 under setting [3] is less than 2000 nM.
The same measure, in the same setting: as for `COc1cc(NC(=O)Nc2ccc(OC(F)F)cc2)cc(C(F)(F)F)c1` [Compound 87, N-[4-(difluoromethoxy)phenyl]-N′-[3-methoxy-5-(trifluoromethyl)phenyl]urea], the figure is less than 2000 nM.
On to `CCOc1cccc(NC(=O)Nc2ccc(C(C)C)cc2)c1` [Compound 570, 1-(3-ethoxyphenyl)-3-(4-isopropylphenyl)urea], for which the IC50 under setting [1] was less than 2000 nM.
Consider `COCc1ccc(NC(=O)Nc2cccc(Cl)c2)cc1` [Compound 394, 1-(3-chlorophenyl)-3-[4-(methoxymethyl)phenyl]urea], for which the IC50 under setting [1] was less than 2000 nM.
Still for that read-out and setting: to `O=C(Nc1ccc(OC(F)F)cc1)Nc1cnccn1` [Compound 627, 1-[4-(difluoromethoxy)phenyl]-3-pyrazin-2-ylurea] belongs less than 2000 nM.
Regarding `CCCc1ccc(NC(=O)Nc2ccccc2)cc1` [Compound 45, N-phenyl-N′-(4-propylphenyl)urea], the IC50 under setting [2] is less than 2000 nM.
For the molecule `COC(=O)c1ccc(NC(=O)Nc2ccc(Cl)cc2)cc1` [Compound 496, methyl 4-({[(4-chlorophenyl)amino]carbonyl}amino)benzoate], the IC50 under setting [1] was less than 2000 nM.
For the molecule `O=C(Nc1cccc(OC(F)F)c1)Nc1ccccc1OC(F)(F)F` [Compound 541, 1-[3-(difluoromethoxy)phenyl]-3-[2-(trifluoromethoxy)phenyl]urea], the IC50 under setting [1] was less than 2000 nM.
On the same count and under the same terms, to `CCc1ccc(NC(=O)Nc2ccccc2[N+](=O)[O-])cc1` [Compound 515, 1-(4-ethylphenyl)-3-(2-nitrophenyl)urea] belongs less than 2000 nM; to `COC(=O)c1cccc(NC(=O)Nc2cccc(OC(F)F)c2)c1` [Compound 676, methyl 3-[({[3-(difluoromethoxy)phenyl]amino}carbonyl)amino]benzoate], less than 2000 nM; to `Cc1ccc(NC(=O)Nc2ccc(OC(C)C)cc2)cc1` [Compound 366, 1-(4-isopropoxyphenyl)-3-(4-methylphenyl)urea], less than 2000 nM.
`Cc1ccc(NC(=O)Nc2ccc(C(C)C)cc2)cc1` [Compound 300, 1-(4-isopropylphenyl)-3-(4-methylphenyl)urea]: the IC50 under setting [1] is less than 2000 nM.
The same measure, in the same setting: as for `Cc1ccc(NC(=O)Nc2ccc(OC(C)C)cc2)cc1F` [Compound 692, 1-(3-fluoro-4-methylphenyl)-3-(4-isopropoxyphenyl)urea], the figure is less than 2000 nM; as for `CCOc1ccc(NC(=O)Nc2cccc(CC)c2)cc1` [Compound 387, 1-(4-ethoxyphenyl)-3-(3-ethylphenyl)urea], less than 2000 nM.
`CCc1ccc(NC(=O)Nc2ccc(OC(F)F)c(OC)c2)cc1` [Compound 53, N-[4-(difluoromethoxy)-3-methoxyphenyl]-N′-(4-ethylphenyl)urea]: under setting [2], the half-inhibitory concentration (IC50) was less than 2000 nM.
In the case of `O=C(Nc1ccc(OC(F)F)cc1)Nc1ccc(-c2ccccc2)cc1` [Compound 99, N-biphenyl-4-yl-N′-[4-(difluoromethoxy)phenyl]urea], the IC50 under setting [3] was less than 2000 nM.
Still for that read-out and setting: to `N#Cc1ccc(NC(=O)Nc2ccc(OC(F)F)cc2)cc1` [Compound 287, N-(4-cyanophenyl)-N′-[4-(difluoromethoxy)phenyl]urea] belongs less than 2000 nM.
In the case of `CC(C)c1ccc(NC(=O)Nc2ccc([N+](=O)[O-])cc2)cc1` [Compound 528, 1-(4-isopropylphenyl)-3-(4-nitrophenyl)urea], under setting [1], the IC50 is less than 2000 nM.
Same read-out and setting: to `CCOc1ccc(NC(=O)Nc2ccc(C(=O)OC(C)C)cc2)cc1` [Compound 599, isopropyl 4-({[(4-ethoxyphenyl)amino]carbonyl}amino)benzoate] belongs less than 2000 nM.
Consider `O=C(Nc1ccc(OC(F)F)cc1)Nc1cc(-c2ccccc2)n[nH]1` [Compound 107, N-[4-(difluoromethoxy)phenyl]-N′-(3-phenyl-1H-pyrazol-5-yl)urea], for which, under setting [3], the IC50 is less than 2000 nM.
Consider `CC(=O)c1ccc(NC(=O)Nc2cccc(Cl)c2)cc1` [Compound 342, 1-(4-acetylphenyl)-3-(3-chlorophenyl)urea], for which the IC50 under setting [1] was less than 2000 nM.
On to `CCc1ccc(NC(=O)Nc2ccc(C(=O)OC(C)C)cc2)cc1` [Compound 502, isopropyl 4-({[(4-ethylphenyl)amino]carbonyl}amino)benzoate], for which the IC50 under setting [1] is less than 2000 nM.
In the case of `O=C(Nc1ccc(Cn2ccnc2)cc1)Nc1ccc(OC(F)F)cc1` [Compound 786, N-[4-(difluoromethoxy)phenyl]-N′-[4-(1H-irnidazol-1-ylmethyl)phenyl]urea], the IC50 under setting [1] was less than 2000 nM.
The same measure, in the same setting: as for `O=C(Nc1cccc(OC(F)F)c1)Nc1ccccc1OC(F)F` [Compound 539, 1-[2-(difluoromethoxy)phenyl]-3-[3-(difluoromethoxy)phenyl]urea], the figure is less than 2000 nM.
